Results reported in patent US9695154B2, “Heteroaryl inhibitors of sumo activating enzyme” (MILLENNIUM PHARMACEUTICALS, INC., priority 2013, dated 2017).

Biological target: T1, recombinant human SAE enzyme (Homo sapiens, UniProt Q9UBT2)
T1 sequence (Q9UBT2 1-640): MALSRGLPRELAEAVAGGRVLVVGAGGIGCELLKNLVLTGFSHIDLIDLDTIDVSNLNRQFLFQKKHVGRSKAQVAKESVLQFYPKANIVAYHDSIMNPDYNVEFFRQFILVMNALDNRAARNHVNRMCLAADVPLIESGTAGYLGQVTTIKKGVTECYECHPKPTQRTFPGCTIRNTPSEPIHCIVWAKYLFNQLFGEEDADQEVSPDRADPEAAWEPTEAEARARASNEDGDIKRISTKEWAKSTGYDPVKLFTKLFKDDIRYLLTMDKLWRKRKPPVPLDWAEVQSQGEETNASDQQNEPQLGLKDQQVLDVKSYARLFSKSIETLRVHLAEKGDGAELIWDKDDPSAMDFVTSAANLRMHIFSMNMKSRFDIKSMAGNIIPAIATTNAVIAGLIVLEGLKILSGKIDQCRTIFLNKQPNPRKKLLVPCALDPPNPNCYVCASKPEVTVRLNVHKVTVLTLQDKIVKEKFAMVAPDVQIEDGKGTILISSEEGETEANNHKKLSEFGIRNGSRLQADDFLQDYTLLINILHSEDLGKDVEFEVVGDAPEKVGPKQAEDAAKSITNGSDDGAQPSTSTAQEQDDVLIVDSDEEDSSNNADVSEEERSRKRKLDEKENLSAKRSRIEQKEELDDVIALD
T1 sequence (Q9UBE0 1-346 partner): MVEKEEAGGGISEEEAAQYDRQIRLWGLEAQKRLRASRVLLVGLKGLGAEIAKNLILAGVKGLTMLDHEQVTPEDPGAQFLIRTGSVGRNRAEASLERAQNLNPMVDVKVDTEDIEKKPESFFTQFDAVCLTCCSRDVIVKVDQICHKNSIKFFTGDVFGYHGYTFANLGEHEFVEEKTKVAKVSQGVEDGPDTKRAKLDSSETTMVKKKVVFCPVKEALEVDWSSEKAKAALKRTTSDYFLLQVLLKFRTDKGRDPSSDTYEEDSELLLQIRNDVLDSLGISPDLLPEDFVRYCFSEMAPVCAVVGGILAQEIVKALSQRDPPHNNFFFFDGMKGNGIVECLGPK
Experiment: SAE HTRF Enzyme Assay
Type: biochemical
Conditions: for IC50: class symbols A-C; for inhibition at 0.111 µM: compound concentration 0.111 μM, read-out: Percent Inhibition
How it was run: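 Recombinant human SAE (0.11 nM) transferred Sumo-Flag (0.125 μM) to Ubc9-GST (0.01 μM) with 0.5 μM ATP in HEPES pH 7.5, MgCl2, GSH, BSA; 105 min at 24° C. EDTA stop, Eu-cryptate anti-Flag and XL-APC anti-GST added, 2 h, then HTRF read. Values given as % inhibition at one concentration or IC50.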

Structure (SMILES)	IC50	inhibition at 0.111 µM
NS(=O)(=O)OC[C@H]1C[C@@H](Nc2ncncc2C(=O)c2ccn(Cc3ccc(F)c(OC(F)(F)F)c3)c2)C[C@@H]1O [Compound I-211, [(1R,2S,4R)-4-{[5-({1-[4-fluoro-3-(trifluoromethoxy)benzyl]-1H-pyrrol-3-yl}carbonyl)pyrimidin-4-yl]amino}-2-hydroxycyclopentyl]methyl sulfamate]	< 10 nM	97%
NS(=O)(=O)OC[C@H]1C[C@@H](Nc2ncncc2C(=O)c2ccn(Cc3ccc(F)c(F)c3)n2)C[C@@H]1O [Compound I-212, {(1R,2S,4R)-4-[(5-{[1-(3,4-difluorobenzyl)-1H-pyrazol-3-yl]carbonyl}pyrimidin-4-yl)amino]-2-hydroxycyclopentyl}methyl sulfamate]	< 10 nM	95%
NS(=O)(=O)OC[C@H]1C[C@@H](Nc2ncncc2C(=O)c2ccn(Cc3cc(F)cc(C(F)(F)F)c3)c2)C[C@@H]1O [Compound I-213, [(1R,2S,4R)-4-{[5-({1-[3-fluoro-5-(trifluoromethyl)benzyl]-1H-pyrrol-3-yl}carbonyl)pyrimidin-4-yl]amino}-2-hydroxycyclopentyl]methyl sulfamate]	< 10 nM	97%
NS(=O)(=O)OC[C@H]1C[C@@H](Nc2ncncc2C(=O)c2ccn(Cc3cn4ccccc4n3)n2)C[C@@H]1O [Compound I-214, {(1R,2S,4R)-2-hydroxy-4-[(5-{[1-(imidazo[1,2-a]pyridin-2-ylmethyl)-1H-pyrazol-3-yl]carbonyl}pyrimidin-4-yl)amino]cyclopentyl}methyl sulfamate]	< 10 nM	98%
NS(=O)(=O)OC[C@H]1C[C@@H](Nc2ncncc2C(=O)c2ccn(Cc3cccc(Cl)c3)n2)C[C@@H]1O [Compound I-215, {(1R,2S,4R)-4-[(5-{[1-(3-chlorobenzyl)-1H-pyrazol-3-yl]carbonyl}pyrimidin-4-yl)amino]-2-hydroxycyclopentyl}methyl sulfamate]	< 10 nM	99%
Cn1cccc(Cn2ccc(C(=O)c3cncnc3N[C@@H]3C[C@H](COS(N)(=O)=O)[C@@H](O)[C@@H]3F)c2)c1=O [Compound I-216, [(1R,2R,3R,4R)-3-fluoro-2-hydroxy-4-{[5-({1-[(1-methyl-2-oxo-1,2-dihydropyridin-3-yl)methyl]-1H-pyrrol-3-yl}carbonyl)pyrimidin-4-yl]amino}cyclopentyl]methyl sulfamate]	< 10 nM	97%
NS(=O)(=O)OC[C@H]1C[C@@H](Nc2ncncc2C(=O)c2ccn(Cc3ccccc3)c2)[C@H](O)[C@@H]1O [Compound I-217, [(1R,2R,3S,4R)-4-({5-[(1-Benzyl-1H-pyrrol-3-yl)carbonyl]pyrimidin-4-yl}amino)-2,3-dihydroxycyclopentyl]methyl sulfamate]	< 10 nM	98%
NS(=O)(=O)OC[C@H]1C[C@@H](Nc2ncncc2C(=O)c2ccn(Cc3ccc(Cl)c(OC(F)(F)F)c3)n2)[C@@H](F)[C@@H]1O [Compound I-218, [(1R,2R,3R,4R)-4-{[5-({1-[4-chloro-3-(trifluoromethoxy)benzyl]-1H-pyrazol-3-yl}carbonyl)pyrimidin-4-yl]amino}-3-fluoro-2-hydroxycyclopentyl]methyl sulfamate]	10 to 100 nM	89%
NS(=O)(=O)OC[C@H]1C[C@@H](Nc2ncncc2C(=O)c2ccn(Cc3cccc(F)c3F)n2)C[C@@H]1O [Compound I-219, {(1R,2S,4R)-4-[(5-{[1-(2,3-difluorobenzyl)-1H-pyrazol-3-yl]carbonyl}pyrimidin-4-yl)amino]-2-hydroxycyclopentyl}methyl sulfamate]	< 10 nM	99%
CC(C)n1ccc(C(=O)c2cncnc2N[C@@H]2C[C@H](COS(N)(=O)=O)[C@@H](O)[C@H]2O)n1 [Compound I-220, [(1R,2R,3S,4R)-2,3-dihydroxy-4-({5-[(1-isopropyl-1H-pyrazol-3-yl)carbonyl]pyrimidin-4-yl}amino)cyclopentyl]methyl sulfamate]	10 to 100 nM	57%
NS(=O)(=O)OC[C@H]1C[C@@H](Nc2ncncc2C(=O)c2ccn(Cc3cccc(I)c3)n2)[C@H](O)[C@@H]1O [Compound I-221, {(1R,2R,3S,4R)-2,3-dihydroxy-4-[(5-{[1-(3-iodobenzyl)-1H-pyrazol-3-yl]carbonyl}pyrimidin-4-yl)amino]cyclopentyl}methyl sulfamate]	< 10 nM	100%
NS(=O)(=O)OC[C@H]1C[C@@H](Nc2ncncc2C(=O)c2ccn(CC3CCOCC3)c2)[C@@H](F)[C@@H]1O [Compound I-222, {(1R,2R,3R,4R)-3-fluoro-2-hydroxy-4-[(5-{[1-(tetrahydro-2H-pyran-4-ylmethyl)-1H-pyrrol-3-yl]carbonyl}pyrimidin-4-yl)amino]cyclopentyl}methyl sulfamate]	10 to 100 nM	63%
NS(=O)(=O)OC[C@H]1C[C@@H](Nc2ccncc2C(=O)c2ccn(Cc3cccc(Br)c3)n2)C[C@@H]1O [Compound I-223, {(1R,2S,4R)-4-[(3-{[1-(3-bromobenzyl)-1H-pyrazol-3-yl]carbonyl}pyridin-4-yl)amino]-2-hydroxycyclopentyl}methyl sulfamate]	< 10 nM	99%
NS(=O)(=O)OC[C@H]1C[C@@H](Nc2ncncc2C(=O)c2ccn(Cc3cccc(OC(F)F)c3)c2)[C@@H](F)[C@@H]1O [Compound I-224, [(1R,2R,3R,4R)-4-{[5-({1-[3-(difluoromethoxy)benzyl]-1H-pyrrol-3-yl}carbonyl)pyrimidin-4-yl]amino}-3-fluoro-2-hydroxycyclopentyl]methyl sulfamate]	< 10 nM	99%
NS(=O)(=O)OC[C@H]1C[C@@H](Nc2ncncc2C(=O)c2ccn(Cc3c(F)ccc(F)c3F)n2)[C@H](O)[C@@H]1O [Compound I-225, {(1R,2R,3S,4R)-2,3-dihydroxy-4-[(5-{[1-(2,3,6-trifluorobenzyl)-1H-pyrazol-3-yl]carbonyl}pyrimidin-4-yl)amino]cyclopentyl}methyl sulfamate]	< 10 nM	> 99%
NS(=O)(=O)OC[C@H]1C[C@@H](Nc2ncncc2C(=O)c2ccn(Cc3ccccc3C(F)(F)F)n2)C[C@@H]1O [Compound I-226, [(1R,2S,4R)-2-hydroxy-4-{[5-({1-[2-(trifluoromethyl)benzyl]-1H-pyrazol-3-yl}carbonyl)pyrimidin-4-yl]amino}cyclopentyl]methyl sulfamate]	10 to 100 nM	85%
NS(=O)(=O)OC[C@H]1C[C@@H](Nc2ncncc2C(=O)c2ccn(Cc3ccccc3)n2)[C@H](F)[C@@H]1O [Compound I-227, [(1R,2R,3S,4R)-4-({5-[(1-benzyl-1H-pyrazol-3-yl)carbonyl]pyrimidin-4-yl}amino)-3-fluoro-2-hydroxycyclopentyl]methyl sulfamate]	< 10 nM	97%
CC#CCn1ccc(C(=O)c2cncnc2N[C@@H]2C[C@H](COS(N)(=O)=O)[C@@H](O)C2)n1 [Compound I-228, {(1R,2S,4R)-4-[(5-{[1-(but-2-yn-1-yl)-1H-pyrazol-3-yl]carbonyl}pyrimidin-4-yl)amino]-2-hydroxycyclopentyl}methyl sulfamate]	10 to 100 nM	72%
NS(=O)(=O)OC[C@H]1C[C@@H](Nc2ncncc2C(=O)c2ccn(Cc3cccc(Oc4ccc(F)cc4)c3)n2)[C@H](O)[C@@H]1O [Compound I-229, [(1R,2R,3S,4R)-4-{[5-({1-[3-(4-fluorophenoxy)benzyl]-1H-pyrazol-3-yl}carbonyl)pyrimidin-4-yl]amino}-2,3-dihydroxycyclopentyl]methyl sulfamate]	10 to 100 nM	88%
NS(=O)(=O)OC[C@H]1C[C@@H](Nc2ncncc2C(=O)c2ccn(Cc3cc(C(F)(F)F)ccc3F)n2)[C@H](O)[C@@H]1O [Compound I-230, [(1R,2R,3S,4R)-4-{[5-({1-[2-fluoro-5-(trifluoromethyl)benzyl]-1H-pyrazol-3-yl}carbonyl)pyrimidin-4-yl]amino}-2,3-dihydroxycyclopentyl]methyl sulfamate]	< 10 nM	98%
